How the values were obtained:
[1] = system: HCC1500 (Breast Carcinoma); assay: Bliss excess, mean over the matrix (fraction); higher = more synergy
How it was run: (§1)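 Cell lines grown in DMEM/F12 or RPMI with 10% FBS were plated in 1536-well plates and held 24 hours at 37°C, 5% CO2 before 72 hours of exposure to two-drug dose matrices, with DMSO typically at 0.2%. CellTiter-Glo 2.0 luminescence gave viability, which was converted to inhibition. Vehicle wells were set to 0 and blank wells to 1. Combination Emax is the second-highest inhibition in the matrix, and Bliss excess is the observed combination effect minus the expected EA + EB − EA·EB, where EA and EB are the single-agent effects.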

[2] = system: Hey (Ovarian Carcinoma); assay: as above
How it was run: as §1

[3] = system: SK-N-AS (Neuroblastoma); assay: as above
How it was run: as §1

[4] = system: KGN (Other Solid Carcinomas); assay: as above
How it was run: as §1

[5] = system: KMRC-1 (Kidney Carcinoma); assay: as above
How it was run: as §1

[6] = system: Mo-T (Other Blood Carcinomas); assay: as above
How it was run: as §1

[7] = system: EW-1 (Ewing's Sarcoma); assay: as above
How it was run: as §1

[8] = system: COLO-668 (Small Cell Lung Carcinoma); assay: as above
How it was run: as §1

[9] = system: KOPN-8 (B-Lymphoblastic Leukemia); assay: as above
How it was run: as §1

[10] = system: NCI-H1355 (Lung Adenocarcinoma); assay: as above
How it was run: as §1

[11] = system: SKN (Other Solid Carcinomas); assay: as above
How it was run: as §1

[12] = system: NCI-H522 (Lung Adenocarcinoma); assay: as above
How it was run: as §1

[13] = system: NCI-H1993 (Lung Adenocarcinoma); assay: as above
How it was run: as §1

[14] = system: A4-Fuk (B-Lymphoblastic Leukemia); assay: as above
How it was run: as §1

[15] = system: SNU-387 (Hepatocellular Carcinoma); assay: as above
How it was run: as §1

[16] = system: HCC2998 (Colorectal Carcinoma); assay: as above
How it was run: as §1

[17] = system: CADO-ES1 (Ewing's Sarcoma); assay: as above
How it was run: as §1

[18] = system: OE33 (Esophageal Adenocarcinoma); assay: as above
How it was run: as §1

[19] = system: NCI-H1355 (Lung Adenocarcinoma); assay: combination Emax (second highest fraction inhibited in the dose matrix, 72 h); higher = more inhibition; extreme values may be limits of the assay
How it was run: as §1

[20] = system: OE33 (Esophageal Adenocarcinoma); assay: as above
How it was run: as §1
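Wherever Bliss excess, mean over the matrix is given: after 72 h of two-drug dosing.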

Compound	Bliss excess [1]	Bliss excess [2]	Bliss excess [3]	Bliss excess [4]	Bliss excess [5]	Bliss excess [6]	Bliss excess [7]	Bliss excess [8]	Bliss excess [9]	Bliss excess [10]	Bliss excess [11]	Bliss excess [12]	Bliss excess [13]	Bliss excess [14]	Bliss excess [15]	Bliss excess [16]	Bliss excess [17]	Bliss excess [18]	combination Emax [19]	combination Emax [20]
C=CCn1c(=O)c2cnc(Nc3ccc(N4CCN(C)CC4)cc3)nc2n1-c1cccc(C(C)(C)O)n1 [AZD1775] + C1CN(CCC1(C(=O)N[C@@H](CCO)C2=CC=C(C=C2)Cl)N)C3=NC=NC4=C3C=CN4 [Capivasertib] (first compound max 3 µM, partner max 3 µM)	-0.0462	-0.0475	-0.0806	-0.0195	-0.0762	-0.05	0.0379	-0.0726	0.0369	0.0046	-0.0375	-0.0028	-0.0096	-0.0977	-0.0435	0.0232	0.006	-0.0326	0.646	0.639
CN(CCO)CC[C@H](CSc1ccccc1)Nc1ccc(S(=O)(=O)NC(=O)c2ccc(N3CCC([C@@H](O)c4ccccc4-c4ccc(Cl)cc4)CC3)cc2)cc1S(=O)(=O)C(F)(F)F [AZD4320] + CN(C)CCCOc1ccc(-c2ccc3ncc4c(c3c2)n(C2CCOCC2)c(=O)n4C)cn1 [AZD0156] (first compound max 1 µM, 7x7, partner max 1 µM)	0.0352	-0.0272	-0.0331	-0.0231	-0.0245	-0.0982	0.0527	0.0435	-0.052	-0.0888	-0.0296	-0.027	-0.0734	-0.0077	-0.0208	-0.01	0.0269	-0.0312	0.162	0.0749
Cc1c2c(nn1C)CSCc1cc(n(C)n1)CSc1cc(c3ccccc3c1)OCCCc1c(C(=O)O)n(C)c3c-2c(Cl)ccc13 [AZD5991] + CC1(C)CCC(CN2CCN(c3ccc(C(=O)NS(=O)(=O)c4ccc(NCC5CCOCC5)c([N+](=O)[O-])c4)c(Oc4cnc5[nH]ccc5c4)c3)CC2)=C(c2ccc(Cl)cc2)C1 [Venetoclax] (first compound max 1 µM, 7x7, partner max 1 µM)	0.256	-0.0236	0.0857	-0.0308	-0.0446	-0.0211	0.103	0.0932	-0.102	-0.0567	-0.0031	-0.0118	0.0009	-0.03	-0.0426	-0.0362	-0.0023	-0.0077	0.188	0.21
CC1(C)CCC(CN2CCN(c3ccc(C(=O)NS(=O)(=O)c4ccc(NCC5CCOCC5)c([N+](=O)[O-])c4)c(Oc4cnc5[nH]ccc5c4)c3)CC2)=C(c2ccc(Cl)cc2)C1 [Venetoclax] + C[C@@H]1COCCN1C2=NC(=NC(=C2)C3(CC3)[S@](=N)(=O)C)C4=C5C=CNC5=NC=C4 [AZD6738] (first compound max 1 µM, 7x7, partner max 10 µM)	0.0413	-0.0378	-0.0222	-0.0601	-0.0365	-0.0373	-0.0224	0.032	0.0289	-0.0593	-0.0654	-0.0099	-0.0366	0.0028	-0.0363	-0.0423	0.0118	-0.0549	0.696	0.773
NC1(C(=O)N[C@@H](CCO)c2ccc(Cl)cc2)CCN(c2ncnc3[nH]ccc23)CC1 [Capivasertib] + C[C@@H]1COCCN1C2=NC(=NC(=C2)C3(CC3)[S@](=N)(=O)C)C4=C5C=CNC5=NC=C4 [AZD6738] (first compound max 10 µM, 7x7, partner max 10 µM)	0.0226	-0.0402	-0.0469	-0.0783	-0.0504	0.0465	0.0229	-0.0501	-0.0253	-0.0317	-0.0477	-0.0483	-0.0598	-0.0841	-0.0613	-0.0629	-0.0284	-0.0225	0.773	0.748
CC1(C)CCC(CN2CCN(c3ccc(C(=O)NS(=O)(=O)c4ccc(NCC5CCOCC5)c([N+](=O)[O-])c4)c(Oc4cnc5[nH]ccc5c4)c3)CC2)=C(c2ccc(Cl)cc2)C1 [Venetoclax] + C[C@@H](Nc1cc(F)cc(F)c1)c1cc(C(=O)N(C)C)cc2c(=O)cc(N3CCOCC3)oc12 [AZD8186] (first compound max 1 µM, 7x7, partner max 3 µM)	0.0626	-0.0286	-0.0347	-0.0296	-0.0198	0.0015	-0.001	0.0418	-0.0088	-0.0256	-0.023	-0.0273	0.0036	-0.0046	-0.0264	-0.0317	0.117	-0.0169	0.196	0.211
COc1cccc(OCCCN)c1-c1cc(Nc2cnc(C#N)cn2)n[nH]1 [Prexasertib] + C=CCn1c(=O)c2cnc(Nc3ccc(N4CCN(C)CC4)cc3)nc2n1-c1cccc(C(C)(C)O)n1 [AZD1775] (first compound max 1 µM, partner max 1 µM)	0.146	0.11	0.0218	0.0615	0.0366	0.0023	0.0461	0.0952	0.0438	-0.0039	0.0515	0.143	0.0596	-0.0205	0.081	0.0716	0.0737	0.0352	0.756	0.829
CCN(CCO)CCCOc1ccc2c(Nc3cc(CC(=O)Nc4cccc(F)c4)[nH]n3)ncnc2c1 [AZD2811] + C[C@@H]1COCCN1C2=NC(=NC(=C2)C3(CC3)[S@](=N)(=O)C)C4=C5C=CNC5=NC=C4 [AZD6738] (first compound max 1 µM, 7x7, partner max 10 µM)	-0.007	-0.0498	-0.0365	-0.0854	-0.042	-0.0188	0.0268	-0.038	0.032	-0.112	-0.0432	-0.0123	-0.0726	-0.008	-0.0864	-0.0574	-0.012	-0.0167	0.679	0.8
CCN(CCO)CCCOc1ccc2c(Nc3cc(CC(=O)Nc4cccc(F)c4)[nH]n3)ncnc2c1 [AZD2811] + O=C(c1cc(Cc2n[nH]c(=O)c3ccccc23)ccc1F)N1CCN(C(=O)C2CC2)CC1 [Olaparib] (first compound max 1 µM, 7x7, partner max 10 µM)	0.0231	0.0251	0.0255	-0.0152	-0.015	-0.027	0.0008	-0.0032	0.0034	0.0006	-0.0168	0.0123	-0.0211	-0.0212	-0.0755	0.0257	0.0242	-0.0094	0.318	0.127
NC1(C(=O)N[C@@H](CCO)c2ccc(Cl)cc2)CCN(c2ncnc3[nH]ccc23)CC1 [Capivasertib] + Cn1cnc2c(F)c(Nc3ccc(Br)cc3Cl)c(C(=O)NOCCO)cc21 [Selumetinib] (first compound max 10 µM, 7x7, partner max 10 µM)	0.0004	-0.0041	0.0046	-0.0041	0.0071	0.0563	0.0819	-0.0088	0.106	0.0132	-0.0264	-0.0098	0.0372	0.0675	-0.0521	-0.0654	-0.0008	0.0301	0.443	0.423
COc1nnc2ccc(N3CCC(c4ccc(OCCN5CCN(C)C(=O)[C@H]5C)cc4)CC3)nn12 [AZD5153] + CCN(CCO)CCCOc1ccc2c(Nc3cc(CC(=O)Nc4cccc(F)c4)[nH]n3)ncnc2c1 [AZD2811] (first compound max 1 µM, 7x7, partner max 1 µM)	0.0233	-0.0417	-0.0065	-0.0951	-0.0437	0.0014	-0.0086	-0.0268	-0.0341	0.0143	-0.0711	-0.115	-0.0401	-0.0025	-0.0837	-0.0288	-0.0493	-0.0523	0.509	0.301
NC1(C(=O)N[C@@H](CCO)c2ccc(Cl)cc2)CCN(c2ncnc3[nH]ccc23)CC1 [Capivasertib] + CC(C)n1c(=O)n(C)c2cnc3cc(F)c(-c4ccc(OCCCN5CCCCC5)nc4)cc3c21 [AZD1390] (first compound max 10 µM, 7x7, partner max 0.3 µM)	-0.0334	-0.0766	-0.0657	-0.047	-0.0645	-0.0451	-0.0622	-0.0298	-0.0611	-0.0206	-0.055	-0.0502	-0.0311	-0.0472	-0.101	-0.0275	-0.039	-0.0563	0.273	0.185
NC1(C(=O)N[C@@H](CCO)c2ccc(Cl)cc2)CCN(c2ncnc3[nH]ccc23)CC1 [Capivasertib] + CCN(CCO)CCCOc1ccc2c(Nc3cc(CC(=O)Nc4cccc(F)c4)[nH]n3)ncnc2c1 [AZD2811] (first compound max 10 µM, 7x7, partner max 1 µM)	0.0228	0.0375	0.0008	-0.0623	-0.0421	-0.0703	0.0388	0.0318	-0.0632	0.045	-0.0219	-0.0817	0.0065	-0.0161	-0.0504	-0.0095	-0.0618	-0.0137	0.425	0.202
CC1(C)CCC(CN2CCN(c3ccc(C(=O)NS(=O)(=O)c4ccc(NCC5CCOCC5)c([N+](=O)[O-])c4)c(Oc4cnc5[nH]ccc5c4)c3)CC2)=C(c2ccc(Cl)cc2)C1 [Venetoclax] + C=CCn1c(=O)c2cnc(Nc3ccc(N4CCN(C)CC4)cc3)nc2n1-c1cccc(C(C)(C)O)n1 [AZD1775] (first compound max 1 µM, partner max 1 µM)	0.114	-0.0821	-0.07	0.0003	-0.0126	-0.0213	-0.0191	0.136	-0.0079	0.0069	0.0355	0.0162	0.0027	-0.0009	-0.0041	-0.0423	-0.0626	-0.0144	0.607	0.623
